Assay results from patent publication US20210347709A1, “RADIOFLUORINATED GPC3-BINDING PEPTIDES FOR PET IMAGING OF HEPATOCELLULAR CARCINOMA” (University of Southern California, priority 2020, published 2021).
Read-outs that look alike come from different tables or passages of the source.

Key:
[1] = In vitro stability in PBS and mouse serum; type: in vitro ADME; details: PBS at room temperature and mouse serum at 37° C., 2 h incubation, HPLC
Method: In Vitro Stability. The stability of Al[^18F]F-GP2076 or Al[^18F]F-GP2633 was evaluated in PBS and mouse serum. Briefly, 5.55 MBq of Al[^18F]F-GP2076 or Al[^18F]F-GP2633 was incubated with 0.5 ml of PBS at room temperature or mouse serum at 37° C. with gentle shaking. The stability test was carried out at 2 h after the incubation. For the PBS study, an aliquot of the solution was taken, and the radiochemical purity was determined by analytical HPLC. For the mouse serum study, after the addition of TFA, the mixture was passed through a 0.2-μm filter. An aliquot of the soluble fraction was taken, and the radiochemical purity was examined by analytical HPLC.

[2] = Measurement of lipophilicity (Log P), 1-octanol/PBS partition; type: physicochemical; details: 1-octanol / PBS pH 7.4, mean ± SD, n = 4
Method: Measurement of Lipophilicity (Log P). Approximately 185 kBq of Al[^18F]F-GP2076 or Al[^18F]F-GP2633 in 0.5 ml of phosphate-buffered saline (PBS) (pH 7.4) was mixed with 0.5 ml of 1-octanol. The mixture was vigorously shaken for 1 min, and then centrifuged at 12,000 rpm for 5 min to partition the organic and aqueous layers. Aliquots of 0.2 ml each layer were taken and the radioactivity was determined by gamma counting (GC-1200, USTC Chuangxin Co. Ltd. Zonkia Branch, China). The distribution coefficient P was calculated as the ratio of radioactivity in the organic phase to that in the aqueous phase. The experiment was carried out in quadruplicate.

[3] = MicroPET/CT imaging and biodistribution, HepG2 tumor model; type: in vivo, nude mice; details: both sexes, BALB/c nude, mouse, iv, 5.55 MBq, total radioactivity; for tissue to tissue ratio at 1 h / tissue to tissue ratio at 0.5 h / tissue to tissue ratio at 2 h: HepG2 (GPC3+) tumor bearing mice; for tissue to tissue ratio at 1 h / tissue uptake at 1 h: 60 min; for tissue to tissue ratio at 0.5 h / tissue uptake at 0.5 h: 30 min; for tissue to tissue ratio at 2 h / tissue uptake at 2 h: 120 min; for tissue uptake at 0.5 h / tissue uptake at 1 h / tissue uptake at 2 h: HepG2 (GPC3+) tumor model, PET
Method: (§1) MicroPET/CT Imaging and Biodistribution. MicroPET/CT scans were carried out using a Siemens Inveon PET/CT scanner (Siemens, Germany). Tumor-bearing mice (n=3/group) were intravenously injected with 5.55 MBq of Al[^18F]F-GP2076 or Al[^18F]F-GP2633 under isoflurane anesthesia. A ten-minute static PET scan for each animal was acquired at 30, 60, and 120 min after the injection. 3-Dimensional ordered subset expectation maximization (3D-OSEM) algorithm was used for the PET reconstruction, and CT was applied for attenuation correction. Detailed procedures for the microPET/CT imaging and biodistribution are provided in ESM.
(§2) All animal experiments were conducted according to the guideline of the Nanfang Hospital Animal Ethics Committee at the Southern Medical University. Male or female BALB/c nude mice (about 4-6 weeks old) were obtained from the Laboratory Animal Center at Southern Medical University. The HepG2 and McA-RH7777 HCC xenografts were established by subcutaneous injection of 1×10^6 tumor cells into the left shoulder of nude mice. The animals were used for in vivo studies when the tumors reached a size of 0.5-1 cm in diameter (4-6 weeks after inoculation).
(§3) Inveon Research Workplace (IRW) 3.0 software (Siemens, Germany) was used to measure the regions of interest (ROIs) determined by superimposing the ellipsoid volume of interest (VOI) on the target tissues. The radioactivity concentrations were measured by the mean pixel intensity within each VOI and converted to dose/ml using a calibration constant. Assuming the tissue density of 1 g/ml, the ROI was then converted to dose per gram and normalized as the percent injected dose per gram (% ID/g). Tumor-to-nontarget uptake ratios, including tumor-to-muscle (T/M), tumor-to-liver (T/L), and tumor-to-kidneys (T/K) ratios, were calculated by dividing the radioactivity uptake in tumor by that in the corresponding normal tissue or organ.

[4] = tested on: GPC3-positive HepG2 tumor; test: as above; type: in vivo, nude mice; details: for Tumor-to-kidneys (T/K) uptake ratio / Tumor-to-liver (T/L) uptake ratio / Tumor-to-muscle (T/M) uptake ratio: HepG2 (GPC3+) tumor bearing mice; for Kidneys uptake / Liver uptake / Tumor uptake: HepG2 (GPC3+) tumor model; for Tumor uptake: decay-corrected
Method: as §1, §2, §3

[5] = In vivo metabolic stability in HepG2 tumor-bearing mice; details: 1 h after intravenous injection
Method: In Vivo Metabolic Stability. HepG2 tumor-bearing mice (n=3/group) were intravenously injected with 5.55 MBq of Al[^18F]F-GP2076 or Al[^18F]F-GP2633. At 1 h after the injection, the mice were euthanized, and the HepG2 tumor, blood, liver, kidneys, and urine samples were collected. Briefly, the blood sample was immediately centrifuged for 5 min at 12,000 rpm. The HepG2 tumor, liver, and kidneys were homogenized and then centrifuged for 5 min at 12,000 rpm. The supernatant from each sample was passed through an ultrafiltration tube (Millipore, USA) and then centrifuged for 10 min at 12,000 rpm. The urine sample was diluted with 100 μl of PBS. The filtrate from each sample was injected into analytic HPLC. The HPLC eluents were collected with a fraction collector (one fraction/30 sec), and the radioactivity of each fraction was measured by gamma counting.

[6] = HepG2 tumor / liver, read-out: Tumor-to-liver (T/L) uptake ratio
[7] = HepG2 tumor / muscle, read-out: Tumor-to-muscle (T/M) uptake ratio
[8] = intestine, read-out: Intestinal uptake
[9] = decay-corrected, read-out: Tumor uptake
[10] = kidneys, read-out: Kidneys uptake
[11] = muscle, read-out: Muscle uptake
[12] = tumor / kidneys, read-out: Tumor-to-kidneys (T/K) uptake ratio

With `CC(C)C[C@H](NC(=O)[C@H](CCCNC(=N)N)NC(=O)[C@H](CC(N)=O)NC(=O)[C@H](CC(=O)O)NC(=O)[C@H](CCCNC(=N)N)NC(=O)CNC(=O)CNC(=O)CNC(=S)Nc1ccc(CC2CN(CC(=O)O)CCN(CC(=O)O)CCN2CC(=O)O)cc1)C(=O)N[C@@H](CC(N)=O)C(=O)N[C@H](C(=O)NCC(=O)NCC(=O)N[C@H](C(=O)N[C@@H](Cc1ccc(O)cc1)C(=O)N[C@@H](Cc1ccccc1)C(=O)N[C@@H](CC(C)C)C(=O)N[C@H](C(=O)N[C@H](C(=O)N[C@@H](CCCNC(=N)N)C(=O)N[C@@H](CCC(N)=O)C(=O)O)[C@@H](C)O)[C@@H](C)O)[C@@H](C)O)C(C)C` (single isomer, unassigned) [Al[^18F]F-GP2633] the “percentage of intact radiotracer (in vitro stability)” value [1] was > 98%, the logP [2] was -2.42 ± 0.09 and the tissue to tissue ratio at 1 h ([3]; HepG2 tumor / kidneys, read-out: Tumor-to-kidneys (T/K) uptake ratio) was 0.09 ± 0.01. It also gave a tissue to tissue ratio at 0.5 h [3, 6] of 1.77 ± 0.2, a tissue to tissue ratio at 1 h [3, 6] of 2 ± 0.18 and a tissue to tissue ratio at 2 h [3, 6] of 1.28 ± 0.25. It also gave a tissue to tissue ratio at 0.5 h [3, 7] of 9.11 ± 0.79, a tissue to tissue ratio at 1 h [3, 7] of 12.2 ± 0.62 and a tissue to tissue ratio at 2 h [3, 7] of 6.2 ± 1.8. For the same molecule, the tissue uptake at 0.5 h ([3]; bone, read-out: Bone uptake) was 0.47 %ID/g, the tissue uptake at 1 h ([3]; bone, read-out: Bone uptake) was 0.43 %ID/g and the tissue uptake at 2 h ([3]; bone, read-out: Bone uptake) was 0.55 %ID/g. The tissue uptake at 0.5 h ([3]; brain, read-out: Brain uptake) was 0.1 %ID/g, the tissue uptake at 1 h ([3]; brain, read-out: Brain uptake) was 0.11 %ID/g and the tissue uptake at 2 h ([3]; brain, read-out: Brain uptake) was 0.22 %ID/g. The tissue uptake at 0.5 h ([3]; heart, read-out: Heart uptake) was 1.04 %ID/g, the tissue uptake at 1 h ([3]; heart, read-out: Heart uptake) was 0.91 %ID/g and the tissue uptake at 2 h ([3]; heart, read-out: Heart uptake) was 0.37 %ID/g. For the same molecule, the tissue uptake at 0.5 h [3, 8] was 1.09 %ID/g, the tissue uptake at 1 h [3, 8] was 1.3 %ID/g and the tissue uptake at 2 h [3, 8] was 0.46 %ID/g. For the same molecule, the tissue uptake at 0.5 h [3, 9] was 3.13 %ID/g, the tissue uptake at 1 h [3, 9] was 3.37 %ID/g and the tissue uptake at 2 h [3, 9] was 1.3 %ID/g. It also gave a tissue uptake at 0.5 h [3, 10] of 39.4 %ID/g, a tissue uptake at 1 h [3, 10] of 36.9 %ID/g and a tissue uptake at 2 h [3, 10] of 29.3 %ID/g. For the same molecule, the tissue uptake at 0.5 h ([3]; liver, read-out: Liver uptake) was 1.8 %ID/g, the tissue uptake at 1 h ([3]; liver, read-out: Liver uptake) was 1.7 %ID/g and the tissue uptake at 2 h ([3]; liver, read-out: Liver uptake) was 1.04 %ID/g. The tissue uptake at 0.5 h ([3]; lung, read-out: Lung uptake) was 0.69 %ID/g, the tissue uptake at 1 h ([3]; lung, read-out: Lung uptake) was 0.59 %ID/g and the tissue uptake at 2 h ([3]; lung, read-out: Lung uptake) was 0.34 %ID/g. The tissue uptake at 0.5 h [3, 11] was 0.35 %ID/g, the tissue uptake at 1 h [3, 11] was 0.28 %ID/g and the tissue uptake at 2 h [3, 11] was 0.22 %ID/g. The tissue to tissue ratio at 0.5 h [3, 12] was 0.08 ± 0.01, the tissue to tissue ratio at 2 h [3, 12] was 0.04 ± 0.01 and the “Tumor-to-kidneys (T/K) uptake ratio” value ([4]; 30 min) was 0.08 ± 0.01. For the same molecule, the “Tumor-to-liver (T/L) uptake ratio” value ([4]; 30 min) was 1.77 ±0.20, the “Tumor-to-muscle (T/M) uptake ratio” value ([4]; 30 min) was 9.11±0.79 and the “Tumor-to-kidneys (T/K) uptake ratio” value ([4]; 60 min) was 0.09±0.01. The “Tumor-to-liver (T/L) uptake ratio” value ([4]; 60 min) was 2.00±0.18, the “Tumor-to-muscle (T/M) uptake ratio” value ([4]; 60 min) was 12.17±0.62 and the “Tumor-to-kidneys (T/K) uptake ratio” value ([4]; 120 min) was 0.04 ± 0.01. The “Tumor-to-liver (T/L) uptake ratio” value ([4]; 120 min) was 1.28±0.25, the “Tumor-to-muscle (T/M) uptake ratio” value ([4]; 120 min) was 6.20±1.80 and the Kidneys uptake ([4]; 30 min, PET) was 39.40±0.98 % ID/g. For the same molecule, the Liver uptake ([4]; 30 min, PET) was 1.80±0.36 % ID/g, the Tumor uptake ([4]; 30 min, PET) was 3.13±0.31 % ID/g and the Kidneys uptake ([4]; 60 min, PET) was 36.86±2.05 % ID/g. It also gave a Liver uptake ([4]; 60 min, PET) of 1.70±0.26 % ID/g, a Tumor uptake ([4]; 60 min, PET) of 3.37±0.35 % ID/g and a Kidneys uptake ([4]; 120 min, PET) of 29.27 ± 3.31 % ID/g. The Liver uptake ([4]; 120 min, PET) was 1.04 ± 0.20 % ID/g, the Tumor uptake ([4]; 120 min, PET) was 1.30±0.17 % ID/g and the “defluorination in vivo (from low bone uptake)” value ([4]; PET, bone uptake) was “did not occur”. The “clearance / excretion route from the mouse body” value ([4]; as visualized by PET images) was “predominantly through the renal system”, the “percentage of parent F-18 labeled peptide in HepG2 tumor” value [5] was 93.01±2.98% and the “percentage of parent F-18 labeled peptide in blood” value [5] was 93.57±1.38%. The “percentage of parent F-18 labeled peptide in kidneys” value [5] was 7.70±2.56%, the “percentage of parent F-18 labeled peptide in liver” value [5] was 92.95±2.77% and the “percentage of parent F-18 labeled peptide in urine” value [5] was “No parent”.
